Measurements published in the supplement of paper PMC10307832.

Columns and labels:
Assay in all cases: relative viability (nuclei count vs DMSO), 5 days (fraction); higher = more cells survive
Sorafenib + Lapatinib = compound: CNC(=O)c1cc(Oc2ccc(NC(=O)Nc3ccc(Cl)c(C(F)(F)F)c3)cc2)ccn1 [Sorafenib] + CS(=O)(=O)CCNCc1ccc(-c2ccc3ncnc(Nc4ccc(OCc5cccc(F)c5)c(Cl)c4)c3c2)o1 [Lapatinib] (partner 2 µM)
Procedure, shortened: (§1)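 Each reported value is a median over duplicate plates. It expresses relative viability: treated-well nuclei count divided by vehicle-well nuclei count. Lung cancer cell lines in 1536-well plates were dosed by pin tool a day after seeding, alone with one drug or with a fixed anchor-drug dose plus five library-drug doses (not always all listed) in √10 steps, and nuclei were counted after 5 days.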

Sorafenib + Dasatinib = compound: CNC(=O)c1cc(Oc2ccc(NC(=O)Nc3ccc(Cl)c(C(F)(F)F)c3)cc2)ccn1 [Sorafenib] + Cc1nc(Nc2ncc(C(=O)Nc3c(C)cccc3Cl)s2)cc(N2CCN(CCO)CC2)n1 [Dasatinib] (partner 0.075 µM)
Procedure, shortened: as §1

Sorafenib + Decitabine = compound: CNC(=O)c1cc(Oc2ccc(NC(=O)Nc3ccc(Cl)c(C(F)(F)F)c3)cc2)ccn1 [Sorafenib] + Nc1ncn([C@H]2C[C@H](O)[C@@H](CO)O2)c(=O)n1 [Decitabine] (partner 2 µM)
Procedure, shortened: as §1

Sorafenib + Vorinostat = compound: CNC(=O)c1cc(Oc2ccc(NC(=O)Nc3ccc(Cl)c(C(F)(F)F)c3)cc2)ccn1 [Sorafenib] + O=C(CCCCCCC(=O)Nc1ccccc1)NO [Vorinostat] (partner 1 µM)
Procedure, shortened: as §1

Sorafenib + Olaparib = compound: CNC(=O)c1cc(Oc2ccc(NC(=O)Nc3ccc(Cl)c(C(F)(F)F)c3)cc2)ccn1 [Sorafenib] + O=C(c1cc(Cc2n[nH]c(=O)c3ccccc23)ccc1F)N1CCN(C(=O)C2CC2)CC1 [Olaparib] (partner 8 µM)
Procedure, shortened: as §1

Row | Cell Line | relative viability (Sorafenib + Lapatinib; first compound 0.08 µM) | relative viability (Sorafenib + Lapatinib; first compound 0.253 µM) | relative viability (Sorafenib + Lapatinib; first compound 2.53 µM) | relative viability (Sorafenib + Lapatinib; first compound 8 µM) | relative viability (Sorafenib + Dasatinib; first compound 0.08 µM) | relative viability (Sorafenib + Dasatinib; first compound 0.253 µM) | relative viability (Sorafenib + Dasatinib; first compound 2.53 µM) | relative viability (Sorafenib + Dasatinib; first compound 8 µM) | relative viability (Sorafenib + Decitabine; first compound 0.08 µM) | relative viability (Sorafenib + Decitabine; first compound 8 µM) | relative viability (Sorafenib + Vorinostat; first compound 0.08 µM) | relative viability (Sorafenib + Vorinostat; first compound 2.53 µM) | relative viability (Sorafenib + Vorinostat; first compound 8 µM) | relative viability (Sorafenib + Olaparib; first compound 0.08 µM) | relative viability (Sorafenib + Olaparib; first compound 0.253 µM) | relative viability (Sorafenib + Olaparib; first compound 2.53 µM) | relative viability (Sorafenib + Olaparib; first compound 8 µM) | relative viability (Sorafenib + Decitabine; first compound 0.253 µM) | relative viability (Sorafenib + Decitabine; first compound 2.53 µM) | relative viability (Sorafenib + Vorinostat; first compound 0.253 µM)
1 | EMC-BAC-2 | 0.924 | 0.813 | 0.883 | 0.879 | 0.301 | 0.268 | 0.354 | 0.299 | 0.925 | 0.757 | 0.481 | 0.546 | 0.479 | 0.473 | 0.387 | 0.45 | 0.461 |  |  | 
2 | EPLC-272H | 1.08 | 0.838 | 1.04 | 0.735 | 0.479 | 0.341 | 0.402 | 0.254 | 0.42 | 0.284 | 0.524 | 0.429 | 0.388 | 1.11 | 0.838 | 1.02 | 0.283 | 0.395 | 0.388 | 0.436
3 | H3255 | 0.56 | 0.222 | 0.295 | 0.244 | 0.497 | 0.344 | 0.345 | 0.201 | 0.656 | 0.366 |  | 0.723 | 0.618 | 0.574 | 0.532 | 0.536 | 0.438 | 0.523 | 0.593 | 0.722
4 | HARA | 0.838 | 0.625 | 0.825 | 0.638 | 0.296 | 0.197 | 0.248 | 0.229 | 0.633 | 0.461 | 0.517 | 0.512 | 0.569 | 0.868 | 0.794 | 0.391 | 0.478 | 0.465 | 0.592 | 0.6
5 | HCC-15 | 0.816 | 0.777 | 0.831 | 0.617 | 0.697 | 0.68 | 0.774 | 0.417 | 0.679 | 0.321 | 0.973 | 0.83 | 0.576 | 0.701 | 0.641 | 0.575 | 0.442 | 0.631 | 0.723 | 0.764
6 | HCC-44 | 0.926 | 0.919 | 0.949 | 0.812 |  |  |  |  |  | 0.866 | 1.03 | 1.09 | 1.16 | 0.936 | 0.876 | 0.92 | 0.953 | 0.862 | 0.886 | 1.05
7 | HCC-78 | 1.06 | 0.755 | 0.815 | 0.86 | 0.46 | 0.393 | 0.549 | 0.397 | 0.752 | 0.596 | 0.459 | 0.532 | 0.496 | 0.891 | 0.953 | 0.909 | 0.819 | 0.634 | 0.608 | 0.331
8 | HCC-366 | 1.21 | 0.859 | 0.805 | 1.04 | 0.626 | 0.551 | 0.639 | 0.518 | 0.337 | 0.279 | 0.315 | 0.256 | 0.22 | 0.354 | 0.319 | 0.287 | 0.268 | 0.295 | 0.34 | 0.343
